Experimental data published in patent US9044464B2, “No-releasing guanidine-coxib anti-cancer agents” (Euclises Pharmaceuticals, Inc., priority 2012, dated 2015).

System: PGE2 levels
Test: Rat Air-Pouch Model for Acute Inflammation (carrageenan challenge, exudate volume and PGE2 by ELISA)
Format: in vivo, Sprague-Dawley rats
Details: for Volume (mL), collected exudate volume, mean / PGE2 (pg/mL) in exudate, mean: 0.01 mmol/kg oral gavage 2 h before intra-pouch 1% carrageenan, exudate collected 4 h after carrageenan; for Volume (mL), collected exudate volume, mean: 5 rats/group, vehicle mean 5.7; for PGE2 (pg/mL) in exudate, mean: ELISA, vehicle mean 4357.7; for reduction in exudate PGE2 release / reduction in collected exudate volume: 0.01 mmol/kg oral pretreatment, versus vehicle; for reduction in collected exudate volume: significant
Procedure: A study of celecoxib release from Example Compound 5 is assessed by measurement of PGE2 levels, which are indicative of inflammatory response.
Animals: Sprague-Dawley rats (Charles River Laboratories, R #3234, PO #738990, male, 160-180 g) were received, individually examined, and housed in cages of five rats each. The rats were ear notched for identification purposes.
Compounds and dosing solutions: The vehicle was prepared by dissolving 40 g (2-hydroxypropyl)-β-cyclodextrin (HP-β-CD, Sigma, Cat. 332593, lot MKBJ5858V) in 160 mL sterile saline for injection, USP (Hospira, lot 26-801-FW) making a […] solution which was filter sterilized (0.2 μm, Nalgene, Cat. 151-4020, lot 1095610). A 1% carrageenan solution was prepared by dissolving […] (Fluka, Cat. 22049, lot 1318338) in hot 60 mL sterile saline for injection, USP. This solution was stored at 4-8° C. Test compounds were dissolved in DMSO (Fisher Scientific, Cat. D128-500, lot 874999) to make 75 mM stocks. 0.25 mL of compound DMSO stocks were mixed with 12.5 mL of HP-β-CD solution at 50° C. (maximum DMSO concentration was 2% of the final volume of vehicle). Final concentration of all test compounds was 1.5 mM and compounds were dosed within 2 hours of preparation at 0.01 mmol/kg ([…] of test compound per rat).
Day 0—Air pouch initiation: The rats were anesthetized in a biological cabinet, the nape of the neck was cleansed with 70% isopropanol (Butler Schein Animal Health, Cat. 002498, lot 29EMS07104547) followed by 1% povidone-iodine solution (Ricca Chemical Co., Cat. 3955-16, lot 2205469). Twenty mL of sterile (0.22 μm, Millipore, Cat. SLGP033RS, lot R2KA55925, exp 08/2015) air was injected subcutaneously (SC) using a 23G×1½ inch needle fixed to a 20 mL syringe. The rats were returned to routine housing. No adverse reactions were observed.
Day 3—Air pouch maintenance: The rats were anesthetized in a biological cabinet, the nape of the neck was cleansed with 70% isopropanol followed by 1% povidone-iodine solution. Ten mL of sterile air was injected SC using a 23G×1½ inch needle fixed to a 20 mL syringe. The rats were returned to routine housing in clean cages. No adverse reactions were observed.
Day 6—Compound administration and carrageenan insult: At commencement of the study, each rat was weighed and sorted into treatment groups of 5 rats/group based upon average weight. Each rat was dosed orally via gavage at 6.809 mL/kg (1.6 mL/235 g) with their respective test material/vehicle. Two hours after test material/vehicle administration, the rats were injected with 1.0 mL of the room temperature 1% carrageenan saline solution into the air pouch. Four hours after carrageenan injection, the rats were anesthetized and 5 mL of the exudate buffer was injected into the air pouch. The pouch was gently massaged, the exudate immediately removed, and exudate volume recorded. The exudate was collected in a serum separator tube on an ice bath. The exudates were centrifuged (refrigerated) and an aliquot of the supernatant was stored in a labeled Eppendorf tube at −80° C.
Termination of Study: Animals were euthanized via CO2 asphyxiation at the completion of the in-life portion of this study and carcasses were disposed of according to standard protocols.
Data analysis: The exudate samples were thawed to room temperature and assayed by ELISA for PGE2 (R&D Systems, Cat. KGE004B, lot 307711). Statistical significance of treatments on mean exudate volumes are determined by comparison of means for treatment groups with vehicle group. Mean cytokine concentrations and standard deviations are determined for each group. Statistical significance of treatments on cytokine concentrations are determined for each compound group compared to vehicle group. Statistical significance (p-value) was calculated vs control groups by Student's t-Test.

## Cc1ccc(-c2cc(C(F)(F)F)nn2-c2ccc(S(N)(=O)=O)cc2)cc1 [celecoxib, 4-[5-(4-Methylphenyl)-3-(trifluoromethyl)-1H-pyrazol-1-yl]benzenesulfonamide]
  Volume (mL), collected exudate volume, mean: 4.6 mL
  PGE2 (pg/mL) in exudate, mean: 907.1 pg/mL
  reduction in exudate PGE2 release: 80%
  reduction in collected exudate volume: 19%

## Cc1ccc(-c2cc(C(F)(F)F)nn2-c2ccc(S(=O)(=O)NC(=O)[C@@H](N)CCCNC(=N)N)cc2)cc1 [Example 5, (S)-2-Amino-5-guanidino-N-((4-(5-(p-tolyl)-3-(trifluoromethyl)-1H-pyrazol-1-yl)phenyl)sulfonyl)pentanamide]
  Volume (mL), collected exudate volume, mean: 4.3 mL
  PGE2 (pg/mL) in exudate, mean: 896.0 pg/mL
  reduction in exudate PGE2 release: 80%
  reduction in collected exudate volume: 24%
